Experimental data reported in patent US20230203060A1 (GENFLEET THERAPEUTICS (SHANGHAI) INC., priority 2020, published 2023).
Like-named read-outs stand apart in the source and are kept apart here.

Legend:
[1] = target: T1, KRAS G12C (Homo sapiens, UniProt P01116, G12C); assay: KRAS G12C NEA-HTRF experiment (SOS1-catalyzed displacement of GDP by GTP); format: biochemical
T1 construct: purchased Reactionbiology
Excerpt: Raw materials and instruments: KRAS G12C (his-tag) purchased from Reactionbiology; batch number 3496; SOS1 purchased from Reactionbiology; batch number: 3501; GTP purchased from Sigma; article number: G8877; batch number: SLBV1450; Tris-HC1 purchased from Sigma; EDTA purchased from absin; article number: abs42017668; batch number: JE20; NaCl purchased from Sigma; article number: 55886; batch number: SLBW4193; MgCl2 purchased from Shyuanye; article number: R21455; batch number: L07S9G69806; HEPES purchased from Life Technologies; article number: 15630-080; batch number: 2037042; DTT purchased from Thermo Fisher; article number: R0862; batch number: 00608918; Triton X-100 purchased from Sigma; article number: T8787-100 ML; batch number: SLBW7103; DY647-labeled GDP purchased from Jena Bioscience; article number: NU-840-647P1; batch number: BM019-045; Anti-6H1S-Tb purchased from Cisbio; article number: 61H12TLA; batch number: 13A; Bradford Assay Kit purchased from Thermo Fisher; article number: 23246; batch number: UG287474; white opaque 96-well plate purchased from Cisbio; article number: 66PL96025; batch number: N°06; NAP-5 column purchased from GE Healthcare; article number: 17085301; batch number: 16995164; mircoplate reader purchased from PerkinElmer; model: Envision MLD2105-0020; equipment number 1050369. The effect of compounds on SOS1-catalyzed displacement of GDP by GTP on KRAS protein was examined using a homogeneous time-resolved fluorescence (HTRF) method. 30 μM 6×his-tagged KRAS G12C recombinant protein was incubated with 80 μM fluorescent dye DY647-labeled GDP in labeling buffer (1 mM DTT, 7.5 mM EDTA, 25 mM Tris-HCl, 45 mM NaCl) at 20° C. in the dark for 2 hours, purified using NAP-5 column, and then protein quantification was performed with Bradford Assay Kit after purification to determine the concentration of KRAS […] 3.16-fold gradient concentration stock solution of 1000× compound was prepared with DMSO, and diluted 250-fold to 4× compound stock solution with reaction buffer (40 mM HEPES, 10 mM MgCl2, 1 mM DTT, 0.002% Triton X-100). KRAS G12C-GDP/Tb working solution (40 nM KRAS […] Tb) and SOS1/GTP working solution (0.2 μM SOS1, 200 μM GTP) were prepared using the reaction buffer. A white opaque 96-well plate was taken, and 5 μL of 4× compound stock solution and 10 μL of KRAS G12C-GDP/Tb working solution were added to each well. 5 μL of reaction buffer instead of 4x compound stock solution was used in the control well. After incubation in the dark for 15 minutes at 20° C., 5μL of SOS1/GTP working solution was added thereto, and the fluorescence value (excitation wavelength: 320 nm, emission wavelength: 615 nm and 665 nm) was read after incubating at 20° C. in the dark for 2 hours. Another T0 group was set up with 10 μL reaction buffer+10 μL KRAS G12C-GDP/Tb working solution, and the fluorescence value was read directly by the microplate reader. The fluorescence signal ratio RLU=(665 nm signal/615 nm signal)×10^4; and the compound inhibition rate IR (%)=(RLUcompound-RLUcontrol)/(RLUT0-RLUcontrol)×100% were calculated. The IC50 value was calculated by fitting the gradient dilution concentration of compound and the corresponding inhibition rate with the four-parameter method. The NEA activity of the compounds prepared in the above embodiments of the present disclosure was 0.0001 μM to 1 μM; the inhibitory activity of some compounds on KRAS G12C mutant MIA PaCa-2 cells was 0.001 μM to 0.5 μM or 0.001 μM to 0.1 μM.

[2] = test system: KRAS G12C mutant NCI-H358 cells; assay: Cell proliferation inhibition experiment, 3D spheroid, CellTiter-Glo, NCI-H358; format: cell-based, human; details: NCI-H358 (KRAS G12C mutant) 3D spheroid, 5 days with compound, CellTiter-Glo, read-out: H358 IC50
Summary of the method: (§1)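 First, H358 (800/well) or A549 (400/well) cells are plated in 2% FBS medium and left overnight to form spheroids. Next, compound is added as a 3.16-fold gradient at 0.1% DMSO for 5 days. Finally, CellTiter-Glo signal is read and IC50 derived by four-parameter fitting.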

[3] = test system: A549 cells (KRAS G12S mutant); assay: Cell proliferation inhibition experiment, 3D spheroid, CellTiter-Glo, A549; format: cell-based, human; details: Homo sapiens, A549, 120 h, A549 (KRAS G12S mutant) 3D spheroid, 5 days with compound, CellTiter-Glo; read-out: A549 IC50
Summary of the method: as §1

[4] = test system: KRAS G12C mutant MIA PaCa-2 cells; assay: Cell proliferation inhibition experiment, 3D spheroid, CellTiter-Glo, MIA PaCa-2; format: cell-based, human; details: Homo sapiens, MIA PaCa-2, 120 h, 3D cell model in 384-well spheroid plate, 5 days, CellTiter-Glo; read-out: MIA-PaCa2 IC50
Summary of the method: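 Luminescent ATP read-out (CellTiter-Glo) after 5-day compound treatment of spheroids formed overnight from 200 MIA PaCa-2 cells/well; compounds in 3.16-fold series, 0.1% DMSO final. IC50 derived by four-parameter fit of percent inhibition, normalized to DMSO control and medium blank.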

T1 sequence (P01116 1-188 isoform P01116-2 G12C): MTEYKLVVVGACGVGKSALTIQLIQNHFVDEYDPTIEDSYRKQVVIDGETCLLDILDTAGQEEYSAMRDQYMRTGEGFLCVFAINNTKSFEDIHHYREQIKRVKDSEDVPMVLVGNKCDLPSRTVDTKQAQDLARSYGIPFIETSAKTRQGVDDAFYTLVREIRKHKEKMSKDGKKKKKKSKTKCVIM

IC50 [1]	IC50 ([2]; Homo sapiens, NCI-H358, 120 h)	IC50 [2]	IC50 [3]	IC50 [4]	SMILES
226 nM	–	–	–	–	C=CC(=O)N1CCN2C(=O)c3c(N4CC5CCC(=O)N5C[C@@H]4C)nc(-c4c(O)cccc4F)c(Cl)c3OC[C@H]2C1 (stereo partly drawn) [Z330-1, (6aR)-8-acryloyl-4-chloro-3-(2-fluoro-6-hydroxyphenyl)-1-((3S)-3-methyl-6-oxohexahydropyrrolo[1,2-c]pyrazin-2 (1H)-yl)-6,6a,7,8,9,10-hexahydro-12H-pyrazino[2,1-c]pyrido[3,4-f][1,4]oxazepin-12-one]
169 nM	16 nM	–	–	–	C=CC(=O)N1CCN2C(=O)c3c(N4C[C@@H](C)O[C@H](C)C4)nc(-c4c(O)cccc4F)c(Cl)c3OC[C@H]2C1 [Z248-2, (6aR)-8-acryloyl-4-chloro-1-((2R,6R)-2,6-dimethylmorpholino)-3-(2-fluoro-6-hydroxyphenyl)-6,6a,7,8,9,10-hexahydro-12H-pyrazino[2,1-c]pyrido[3,4-f][1,4]oxazepin-12-one]
> 10000 nM	–	–	–	–	C=CC(=O)N1CCN2C(=O)c3c(N4CCN(C)[C@H](C)[C@@H]4C)nc(-c4ccccc4F)c(Cl)c3OC[C@H]2C1 (single isomer, unassigned) [Z465-2]
33 nM	–	–	–	–	C=CC(=O)N1CCN2C(=O)c3c(N4Cc5nncn5CC4C)nc(-c4c(O)cccc4F)c(Cl)c3OC[C@H]2C1 (stereo partly drawn) [Z277-1, (6aR)-8-acryloyl-4-chloro-3-(2-fluoro-6-hydroxyphenyl)-1-(6-methyl-5,6-dihydro-[1,2,4]triazolo [4,3-a]pyrazin-7(8H)-yl)-6,6a,7,8,9,10-hexahydro-12H-pyrazino[2,1-c]pyrido[3,4-f][1,4]oxazepin-12-one]
194 nM	51.3 nM	–	–	–	C=CC(=O)N1CCN2C(=O)c3c(N4C[C@@H](O)[C@@H]4C)nc(-c4c(O)cccc4F)c(Cl)c3OC[C@H]2C1 (single isomer, unassigned) [Z102-1]
–	47 nM	–	> 20000 nM	42 nM	C=CC(=O)N1CCN2C(=O)c3c(N4CCC5CN(C)CC54)nc(-c4c(O)cccc4F)c(Cl)c3OC[C@H]2C1 (stereo partly drawn) [Z47, (6aR)-8-acryloyl-4-chloro-3-(2-fluoro-6-hydroxyphenyl)-1-(5-methylhexahydropyrrolo[3,4-b]pyrrol-1(2H)-yl)-6,6a,7,8,9,10-hexahydro-12H-pyrazino[2,1-c]pyrido[3,4-f][1,4]oxazepin-12-one]
–	50 nM	–	> 5000 nM	73 nM	C=CC(=O)N1CCN2C(=O)c3c(N4CCO[C@@H](C)C4)nc(-c4c(O)cccc4F)c(Cl)c3OC[C@H]2C1 [Z23, (6aR)-8-acryloyl-4-chloro-3-(2-fluoro-6-hydroxyphenyl)-1-((S)-2-methylmorpholino)-6,6a,7,8,9,10-hexahydro-12H-pyrazino[2,1-c]pyrido[3,4-f][1,4]oxazepin-12-one]
252 nM	–	–	–	> 1000 nM	C=CC(=O)N1CCN2C(=O)c3c(N4C[C@H](C(=O)O)CC4(C)C)nc(-c4c(O)cccc4F)c(Cl)c3OC[C@H]2C1 (single isomer, unassigned) [Z458-2]
275 nM	–	38 nM	–	–	C=CC(=O)N1CCN2C(=O)c3c(N4CCN(C)[C@H](C)[C@@H]4C)nc(-c4c(O)cccc4F)c(Cl)c3OC[C@H]2C1 (relative stereo) [Z465, (6aR)-8-acryloyl-4-chloro-3-(2-fluoro-6-hydroxyphenyl)-1-(cis-2,3,4-trimethylpiperazin-1-yl)-12-oxo-6,6a,7,8,9,10-hexahydro-12H-pyrazino[2,1-c]pyrido[3,4-f][1,4]oxazepin-12-one]

The next lines start with the molecule.

SMILES	IC50 [1]	IC50 ([2]; Homo sapiens, NCI-H358, 120 h)	IC50 [2]	IC50 [3]	IC50 [4]
C=CC(=O)N1CCN2C(=O)c3c(N4C[C@H](N5CCN(C)CC5)CC4(C)C)nc(-c4ccccc4F)c(F)c3OC[C@H]2C1 (single isomer, unassigned) [Z474-2]	593 nM	63.3 nM	–	–	–
C=CC(=O)N1CCN2Cc3c(C(=O)N(C)C(C)C)nc(-c4ccccc4F)c(Cl)c3OC[C@H]2C1 [Z656, (R)-8-acryloyl-4-chloro-3-(2-fluorophenyl)-N-isopropyl-N-methyl-6a,7,8,9,10,12-hexahydro-6H-pyrazino[2,1-c]pyrido[3,4-f][1,4]oxazepine-1-carboxamide]	> 10000 nM	–	–	–	–
C=CC(=O)N1CCN2C(=O)c3c(N4C[C@H](O)CC4(C)C)nc(-c4c(F)ccc(F)c4O)c(F)c3OC[C@H]2C1 (single isomer, unassigned) [Z449-2]	389 nM	–	–	–	–
C=CC(=O)N1CCN2C(=O)c3c(N4C[C@@H](N(C)CCOC)CC4(C)C)nc(-c4ccccc4F)c(Cl)c3OC[C@H]2C1 (single isomer, unassigned) [Z406-2]	175 nM	21 nM	–	–	–
C=CC(=O)N1CCN2C(=O)c3c(N4CC(N5CC(F)C5)CC4(C)C)nc(-c4ccccc4F)c(Cl)c3OC[C@H]2C1 (single isomer, unassigned) [Z480-2]	321 nM	155 nM	–	–	–
C=CC(=O)N1CCN2C(=O)c3c(N4CCN(CCOC)C(C)(C)C4)nc(-c4ccccc4F)c(Cl)c3OCC2C1 (stereo not drawn) [Z478, 8-acryloyl-4-chloro-3-(2-fluorophenyl)-1-(4-(2-methoxyethyl)-3,3-dimethylpiperazin-1-yl)-6,6a,7,8,9,10-hexahydro-12H-pyrazino[2,1-c]pyrido[3,4-f][1,4]oxazepin-12-one]	423 nM	29.6 nM	–	–	–
C=CC(=O)N1CCN2C(=O)c3c(N4CC(N5CC(OC)C5)CC4(C)C)nc(-c4ccccc4F)c(Cl)c3OC[C@H]2C1 (single isomer, unassigned) [Z479-2]	431 nM	74.9 nM	–	–	–
C=CC(=O)N1CCN2C(=O)c3c(N4CCC[C@@]4(C)C(=O)NC)nc(-c4c(F)cccc4OC)c(Cl)c3OC[C@H]2C1 (single isomer, unassigned) [Z466-2]	383 nM	–	38 nM	–	–
C=CC(=O)N1CCN2C(=O)c3c(N4CCC[C@@]4(C)C(=O)NC)nc(-c4c(F)cccc4OC)c(Cl)c3OC[C@H]2C1 (single isomer, unassigned) [Z466-1]	764 nM	49 nM	–	–	–
